According to ChEMBL document CHEMBL4507291 (2021):

Experiments:
[1] = target: T1, Serine/threonine-protein kinase 3 (Homo sapiens) (UniProt Q13188); assay: STK3 (MST2) Kinase screen; conditions: Compound concentration 1.0 uM
T1 sequence (whole entry): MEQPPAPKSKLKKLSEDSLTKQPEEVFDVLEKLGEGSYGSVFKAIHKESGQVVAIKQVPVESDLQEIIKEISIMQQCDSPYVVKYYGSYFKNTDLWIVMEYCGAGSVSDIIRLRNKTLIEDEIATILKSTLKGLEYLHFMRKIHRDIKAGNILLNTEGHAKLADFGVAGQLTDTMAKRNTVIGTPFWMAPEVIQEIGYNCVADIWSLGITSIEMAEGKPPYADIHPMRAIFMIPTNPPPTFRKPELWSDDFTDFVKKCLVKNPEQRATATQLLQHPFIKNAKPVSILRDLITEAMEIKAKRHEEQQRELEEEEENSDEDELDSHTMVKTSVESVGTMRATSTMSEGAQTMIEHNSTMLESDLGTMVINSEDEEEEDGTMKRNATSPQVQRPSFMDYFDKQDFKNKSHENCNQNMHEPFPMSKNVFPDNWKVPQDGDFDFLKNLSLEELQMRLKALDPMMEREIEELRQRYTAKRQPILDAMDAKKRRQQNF

[2] = target: Platelet-derived growth factor receptor alpha (Homo sapiens) (UniProt P16234); assay: PDGFRA (PDGFR alpha) Kinase screen; conditions: Compound concentration 1.0 uM
[3] = Inhibition of Atrial Natriuretic Factor (ANF) at 10 µM in the Eurofins-Panlabs radioligand binding assay (Eurofins_assay_211000); conditions: Cavia porcellus
[4] = target: T2, Alpha-2B adrenergic receptor (Homo sapiens) (UniProt P18089); conditions: Compound concentration 10.0 uM
T2 sequence (whole entry): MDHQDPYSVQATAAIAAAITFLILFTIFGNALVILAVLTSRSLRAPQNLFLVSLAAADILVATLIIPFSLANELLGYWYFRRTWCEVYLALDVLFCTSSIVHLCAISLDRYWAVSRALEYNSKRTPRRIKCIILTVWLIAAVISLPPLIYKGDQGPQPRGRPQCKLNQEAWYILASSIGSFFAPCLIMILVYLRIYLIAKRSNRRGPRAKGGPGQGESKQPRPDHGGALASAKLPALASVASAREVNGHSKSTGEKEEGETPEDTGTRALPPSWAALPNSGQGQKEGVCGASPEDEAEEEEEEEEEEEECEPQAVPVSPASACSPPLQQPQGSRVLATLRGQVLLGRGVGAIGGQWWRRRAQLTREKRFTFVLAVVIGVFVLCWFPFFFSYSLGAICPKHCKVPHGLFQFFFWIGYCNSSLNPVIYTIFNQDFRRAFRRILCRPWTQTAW

[5] = target: Mitogen-activated protein kinase kinase kinase 20 (Homo sapiens) (UniProt Q9NYL2); assay: ZAK Kinase screen; conditions: Compound concentration 1.0 uM
Mitogen-activated protein kinase kinase kinase 20 (Homo sapiens), sequence (Q9NYL2 2-800 limits assumed): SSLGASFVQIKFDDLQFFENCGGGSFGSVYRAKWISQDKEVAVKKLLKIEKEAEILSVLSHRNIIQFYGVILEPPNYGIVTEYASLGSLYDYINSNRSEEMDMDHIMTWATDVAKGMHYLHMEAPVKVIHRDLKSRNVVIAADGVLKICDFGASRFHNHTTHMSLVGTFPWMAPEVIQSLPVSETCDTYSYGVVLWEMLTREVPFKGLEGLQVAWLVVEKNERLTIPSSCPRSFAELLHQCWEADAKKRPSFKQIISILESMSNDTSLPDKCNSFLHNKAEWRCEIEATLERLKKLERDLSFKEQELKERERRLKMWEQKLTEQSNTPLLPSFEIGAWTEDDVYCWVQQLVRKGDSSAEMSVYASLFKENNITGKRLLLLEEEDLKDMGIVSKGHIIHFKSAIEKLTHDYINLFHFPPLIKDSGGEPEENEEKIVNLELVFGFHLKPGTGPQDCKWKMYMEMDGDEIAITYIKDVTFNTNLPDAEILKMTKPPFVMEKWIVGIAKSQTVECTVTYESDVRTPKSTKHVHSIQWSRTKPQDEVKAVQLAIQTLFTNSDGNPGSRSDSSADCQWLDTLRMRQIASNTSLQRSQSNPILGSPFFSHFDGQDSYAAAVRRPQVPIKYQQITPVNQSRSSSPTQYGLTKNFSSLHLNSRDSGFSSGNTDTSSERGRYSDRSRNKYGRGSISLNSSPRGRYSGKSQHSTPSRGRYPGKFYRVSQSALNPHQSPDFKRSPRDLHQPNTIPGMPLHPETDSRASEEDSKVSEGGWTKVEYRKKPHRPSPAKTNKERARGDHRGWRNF

[6] = target: T3, Tyrosine-protein kinase Tec (Homo sapiens) (UniProt P42680); assay: TEC Kinase screen; conditions: Compound concentration 1.0 uM
T3 sequence (whole entry): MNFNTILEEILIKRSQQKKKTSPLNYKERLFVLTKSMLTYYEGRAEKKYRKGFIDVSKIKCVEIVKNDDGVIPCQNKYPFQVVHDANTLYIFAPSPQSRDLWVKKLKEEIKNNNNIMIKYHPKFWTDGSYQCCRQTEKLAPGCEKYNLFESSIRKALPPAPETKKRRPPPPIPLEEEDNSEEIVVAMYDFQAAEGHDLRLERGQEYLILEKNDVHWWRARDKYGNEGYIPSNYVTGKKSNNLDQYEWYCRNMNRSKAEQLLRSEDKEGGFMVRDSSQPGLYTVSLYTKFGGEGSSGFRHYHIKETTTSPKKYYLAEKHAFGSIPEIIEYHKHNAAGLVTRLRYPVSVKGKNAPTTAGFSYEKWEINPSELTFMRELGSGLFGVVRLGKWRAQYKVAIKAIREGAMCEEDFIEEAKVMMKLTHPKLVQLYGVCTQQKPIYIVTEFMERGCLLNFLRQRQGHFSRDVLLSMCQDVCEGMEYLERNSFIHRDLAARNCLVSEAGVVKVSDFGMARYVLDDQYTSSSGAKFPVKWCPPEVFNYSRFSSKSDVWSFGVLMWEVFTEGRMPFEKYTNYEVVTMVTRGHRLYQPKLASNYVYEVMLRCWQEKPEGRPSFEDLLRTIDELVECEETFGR

[7] = target: Neuropeptide Y receptor type 2 (Homo sapiens) (UniProt P49146); assay: Inhibition of Neuropeptide Y Y2 at 10 µM in the Eurofins-Panlabs radioligand binding assay (Eurofins_assay_257110); conditions: Compound concentration 10.0 uM
Neuropeptide Y receptor type 2 (Homo sapiens), sequence (P49146 whole entry): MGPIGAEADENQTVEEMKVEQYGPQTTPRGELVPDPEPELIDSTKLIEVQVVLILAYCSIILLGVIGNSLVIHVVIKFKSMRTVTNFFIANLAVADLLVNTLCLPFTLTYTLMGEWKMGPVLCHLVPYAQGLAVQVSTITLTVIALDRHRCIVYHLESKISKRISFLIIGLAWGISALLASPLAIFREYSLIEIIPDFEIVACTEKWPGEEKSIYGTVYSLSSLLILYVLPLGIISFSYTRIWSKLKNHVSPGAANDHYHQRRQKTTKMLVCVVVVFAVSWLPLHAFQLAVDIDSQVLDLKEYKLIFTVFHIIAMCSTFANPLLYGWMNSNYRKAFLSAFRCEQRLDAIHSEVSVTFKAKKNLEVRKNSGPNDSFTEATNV

[8] = target: Tyrosine-protein kinase HCK (Homo sapiens) (UniProt P08631); assay: HCK Kinase screen; conditions: Compound concentration 1.0 uM
Tyrosine-protein kinase HCK (Homo sapiens), sequence (P08631 2-526 limits assumed): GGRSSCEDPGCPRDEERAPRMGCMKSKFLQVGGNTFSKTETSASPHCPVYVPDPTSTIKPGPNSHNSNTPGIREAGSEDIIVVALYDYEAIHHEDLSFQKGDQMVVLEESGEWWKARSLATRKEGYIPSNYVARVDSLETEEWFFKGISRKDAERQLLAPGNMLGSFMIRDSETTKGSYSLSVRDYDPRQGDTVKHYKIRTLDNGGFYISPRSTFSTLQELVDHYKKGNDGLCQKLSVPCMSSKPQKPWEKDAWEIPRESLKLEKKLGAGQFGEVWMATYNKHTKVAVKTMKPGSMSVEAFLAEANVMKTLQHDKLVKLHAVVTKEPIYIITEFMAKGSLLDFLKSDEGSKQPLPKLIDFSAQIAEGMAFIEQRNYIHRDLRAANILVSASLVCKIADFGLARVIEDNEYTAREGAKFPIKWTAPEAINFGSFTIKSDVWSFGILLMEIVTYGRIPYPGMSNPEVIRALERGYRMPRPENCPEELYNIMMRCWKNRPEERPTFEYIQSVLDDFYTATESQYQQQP

[9] = target: Calcium/calmodulin-dependent protein kinase type 1D (Homo sapiens) (UniProt Q8IU85); assay: CAMK1D (CaMKI delta) Kinase screen; conditions: Compound concentration 1.0 uM
Calcium/calmodulin-dependent protein kinase type 1D (Homo sapiens), sequence (Q8IU85 whole entry, looked up): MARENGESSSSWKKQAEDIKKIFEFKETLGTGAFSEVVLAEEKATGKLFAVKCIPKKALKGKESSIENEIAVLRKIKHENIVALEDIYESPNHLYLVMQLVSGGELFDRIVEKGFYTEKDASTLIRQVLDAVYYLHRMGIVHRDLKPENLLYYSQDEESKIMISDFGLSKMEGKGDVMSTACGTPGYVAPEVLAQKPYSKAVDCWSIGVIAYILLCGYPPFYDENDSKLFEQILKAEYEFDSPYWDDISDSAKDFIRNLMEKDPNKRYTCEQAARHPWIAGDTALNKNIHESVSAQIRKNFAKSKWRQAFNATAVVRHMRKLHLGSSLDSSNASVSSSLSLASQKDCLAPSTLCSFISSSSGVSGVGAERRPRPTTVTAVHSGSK

[10] = target: Macrophage-stimulating protein receptor (Homo sapiens) (UniProt Q04912); assay: MST1R (RON) Kinase screen; conditions: Compound concentration 1.0 uM
[11] = target: Dual specificity tyrosine-phosphorylation-regulated kinase 1A (Homo sapiens) (UniProt Q13627); assay: DYRK1A Kinase screen; conditions: Compound concentration 1.0 uM
[12] = target: Serine/threonine-protein kinase PLK3 (Homo sapiens) (UniProt Q9H4B4); assay: PLK3 Kinase screen; conditions: Compound concentration 1.0 uM
Serine/threonine-protein kinase PLK3 (Homo sapiens), sequence (Q9H4B4 whole entry, looked up): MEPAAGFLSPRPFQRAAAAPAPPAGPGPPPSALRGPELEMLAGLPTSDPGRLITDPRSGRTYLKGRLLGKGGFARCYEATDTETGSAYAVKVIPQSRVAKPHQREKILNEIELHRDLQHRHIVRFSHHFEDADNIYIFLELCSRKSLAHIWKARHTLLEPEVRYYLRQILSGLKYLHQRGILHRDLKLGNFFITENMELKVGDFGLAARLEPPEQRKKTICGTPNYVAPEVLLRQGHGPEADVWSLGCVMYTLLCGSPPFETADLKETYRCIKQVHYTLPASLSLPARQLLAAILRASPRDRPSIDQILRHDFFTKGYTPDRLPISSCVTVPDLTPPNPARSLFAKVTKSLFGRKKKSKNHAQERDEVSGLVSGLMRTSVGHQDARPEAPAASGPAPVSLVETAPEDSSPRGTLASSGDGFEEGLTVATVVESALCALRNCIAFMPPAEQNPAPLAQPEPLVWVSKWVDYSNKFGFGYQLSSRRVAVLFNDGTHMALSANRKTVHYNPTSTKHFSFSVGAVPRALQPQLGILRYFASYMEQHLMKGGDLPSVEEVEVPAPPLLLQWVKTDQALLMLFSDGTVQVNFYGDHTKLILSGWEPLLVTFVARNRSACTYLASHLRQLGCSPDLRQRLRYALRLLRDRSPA

[13] = target: MAO-B (amine oxidase [flavin-containing] B) (Homo sapiens, UniProt P27338); assay: Inhibition of Monoamine Oxidase MAO-B at compound concentration of 10.0 uM in the Eurofins-Panlabs enzyme assay (Eurofins_assay_140120); set-up: substrate with concentration 50 uM Kynuramine, incubation time 60 min, incubation temperature 37 C; conditions: recombinant human MAO-B expressed in insect Hi5 cells, probe kynuramine (50 uM), compound concentration 10 uM
MAO-B (amine oxidase [flavin-containing] B), sequence (P27338 whole entry): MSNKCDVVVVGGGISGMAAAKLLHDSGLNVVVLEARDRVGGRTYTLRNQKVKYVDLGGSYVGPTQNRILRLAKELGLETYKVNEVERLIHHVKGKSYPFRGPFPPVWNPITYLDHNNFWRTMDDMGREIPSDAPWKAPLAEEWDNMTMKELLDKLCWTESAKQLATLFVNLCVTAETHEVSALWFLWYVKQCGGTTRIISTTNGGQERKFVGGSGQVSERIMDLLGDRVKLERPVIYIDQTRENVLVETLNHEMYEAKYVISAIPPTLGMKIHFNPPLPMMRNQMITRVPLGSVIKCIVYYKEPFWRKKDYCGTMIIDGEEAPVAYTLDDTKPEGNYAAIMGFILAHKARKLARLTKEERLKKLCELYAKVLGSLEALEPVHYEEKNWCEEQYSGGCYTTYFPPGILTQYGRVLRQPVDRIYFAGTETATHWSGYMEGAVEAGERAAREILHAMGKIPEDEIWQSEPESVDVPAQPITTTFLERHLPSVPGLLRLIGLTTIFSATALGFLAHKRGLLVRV

[14] = target: T4, Activin receptor type-1 (Homo sapiens) (UniProt Q04771); assay: ACVR1 (ALK2) Kinase screen; conditions: Compound concentration 1.0 uM
T4 sequence (whole entry): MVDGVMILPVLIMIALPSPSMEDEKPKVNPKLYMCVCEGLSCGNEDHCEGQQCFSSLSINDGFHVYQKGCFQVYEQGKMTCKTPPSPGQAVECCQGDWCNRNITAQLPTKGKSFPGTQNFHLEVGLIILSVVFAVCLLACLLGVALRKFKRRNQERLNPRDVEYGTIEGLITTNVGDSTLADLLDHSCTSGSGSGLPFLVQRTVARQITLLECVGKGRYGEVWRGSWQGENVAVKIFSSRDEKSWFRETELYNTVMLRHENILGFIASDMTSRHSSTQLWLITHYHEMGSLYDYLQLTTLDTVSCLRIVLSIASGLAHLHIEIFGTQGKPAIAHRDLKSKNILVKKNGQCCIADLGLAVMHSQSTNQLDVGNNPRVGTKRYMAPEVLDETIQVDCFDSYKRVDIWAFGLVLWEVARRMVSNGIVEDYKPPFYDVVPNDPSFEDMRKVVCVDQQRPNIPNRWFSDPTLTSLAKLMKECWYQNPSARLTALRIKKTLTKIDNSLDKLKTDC

[15] = target: Estrogen receptor (Homo sapiens) (UniProt P03372); conditions: Compound concentration 10.0 uM
Estrogen receptor (Homo sapiens), sequence (P03372 whole entry): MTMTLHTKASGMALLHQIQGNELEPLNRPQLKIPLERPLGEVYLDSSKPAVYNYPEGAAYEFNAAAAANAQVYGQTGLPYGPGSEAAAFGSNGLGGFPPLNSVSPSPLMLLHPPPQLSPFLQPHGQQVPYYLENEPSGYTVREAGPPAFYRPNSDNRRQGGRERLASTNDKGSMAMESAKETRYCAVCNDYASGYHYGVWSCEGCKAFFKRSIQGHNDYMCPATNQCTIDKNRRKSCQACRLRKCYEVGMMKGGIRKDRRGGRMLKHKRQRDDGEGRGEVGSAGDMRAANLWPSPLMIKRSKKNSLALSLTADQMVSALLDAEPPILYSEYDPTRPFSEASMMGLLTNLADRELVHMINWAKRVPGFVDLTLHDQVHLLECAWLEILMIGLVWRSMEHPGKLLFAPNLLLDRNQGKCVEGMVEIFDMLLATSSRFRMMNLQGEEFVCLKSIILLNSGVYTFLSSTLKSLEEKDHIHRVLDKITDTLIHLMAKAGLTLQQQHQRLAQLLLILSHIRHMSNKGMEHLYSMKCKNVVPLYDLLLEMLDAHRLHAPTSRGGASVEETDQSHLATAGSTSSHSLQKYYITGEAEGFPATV

[16] = target: Serine/threonine-protein kinase B-raf (Homo sapiens) (UniProt P15056); assay: BRAF Kinase screen; conditions: Compound concentration 1.0 uM
[17] = target: Epithelial discoidin domain-containing receptor 1 (Homo sapiens) (UniProt Q08345); assay: DDR1 Kinase screen; conditions: Compound concentration 1.0 uM
Epithelial discoidin domain-containing receptor 1 (Homo sapiens), sequence (Q08345 whole entry, the tested form may be a part): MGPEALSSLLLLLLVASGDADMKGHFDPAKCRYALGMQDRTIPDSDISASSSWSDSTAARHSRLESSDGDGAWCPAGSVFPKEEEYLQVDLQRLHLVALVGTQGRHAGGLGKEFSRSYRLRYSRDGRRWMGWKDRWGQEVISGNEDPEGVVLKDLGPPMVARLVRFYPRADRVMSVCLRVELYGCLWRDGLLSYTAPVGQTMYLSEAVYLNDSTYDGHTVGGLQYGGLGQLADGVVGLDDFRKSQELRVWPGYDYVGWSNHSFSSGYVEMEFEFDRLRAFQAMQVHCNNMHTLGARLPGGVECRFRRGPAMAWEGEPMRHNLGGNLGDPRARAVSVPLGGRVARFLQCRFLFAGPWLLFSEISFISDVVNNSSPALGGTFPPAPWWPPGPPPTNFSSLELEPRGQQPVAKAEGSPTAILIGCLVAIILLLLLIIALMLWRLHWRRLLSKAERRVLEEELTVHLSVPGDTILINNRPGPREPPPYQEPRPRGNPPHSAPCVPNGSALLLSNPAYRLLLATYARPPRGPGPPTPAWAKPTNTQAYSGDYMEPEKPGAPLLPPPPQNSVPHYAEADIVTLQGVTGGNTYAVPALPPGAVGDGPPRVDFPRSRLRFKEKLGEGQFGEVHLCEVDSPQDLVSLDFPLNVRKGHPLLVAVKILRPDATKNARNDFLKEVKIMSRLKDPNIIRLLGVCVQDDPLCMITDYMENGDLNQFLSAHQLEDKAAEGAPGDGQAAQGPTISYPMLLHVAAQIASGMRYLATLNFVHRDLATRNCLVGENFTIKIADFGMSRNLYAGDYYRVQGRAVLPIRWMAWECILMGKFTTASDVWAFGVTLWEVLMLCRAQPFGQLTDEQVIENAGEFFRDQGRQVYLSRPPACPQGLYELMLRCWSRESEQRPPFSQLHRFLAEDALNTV

C[C@@H]1CN(c2cc(-c3n[nH]c4ccc(OC5(C)CC5)cc34)ncn2)C[C@H](C)O1 [MLi-2]
inhibition [1]: 11.9% | inhibition [2]: 0.395% | inhibition at 10 µM [3]: -2% (not active) | inhibition [4]: 2% | inhibition [5]: 4.32% | inhibition [6]: -2.1% | inhibition [7]: 1% | inhibition [8]: 7.67% | inhibition [9]: 17.4% | inhibition [10]: 1.51% | inhibition [11]: 4.36% | inhibition [12]: 4.9% | inhibition at 60 min, 10 µM [13]: 28% (not active) | inhibition [14]: 10.7% | inhibition [15]: 8% | inhibition [16]: 27.1% | inhibition [17]: 0.893%
